Several values for one entry are separate records, joined by “and”; a condition that tells them apart may be missing. Equal entries are not always repeated.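 Five compound concentrations were applied to cells in 96-well plates for 48 hours; endpoints were derived by simple linear interpolation of the resulting dose-response curve. GI50 = concentration required for 50% inhibition of growth. The concentration for full growth arrest is given as TGI.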

Eight compounds from PubChem BioAssay (NCI) can be followed below.

Among the test systems are LOX IMVI melanoma; MCF7 breast; RXF 393 renal; NCI-H460 lung; MDA-MB-435; CCRF-CEM leukemia; 786-0 renal; NCI/ADR-RES ovarian; PC-3 prostate; DU-145 prostate.
Holding throughout (test): NCI anticancer screen, dose series, 48 h

In the case of `COC(=O)[C@]12CC[C@@H](C)[C@H](C)[C@@H]1C1=CC[C@@H]3[C@@]4(C)C(C=O)=C[C@@](C)(COC(=O)c5ccco5)[C@@H]4C(=O)C[C@@]3(C)[C@]1(C)CC2`, the GI50 was 4.42 µM with LOX IMVI melanoma; 4.07 µM in the assay with MCF7 breast; 3.35 µM with RXF 393 renal; 3.92 µM in the assay on NCI-H460 lung; 0.193 µM in the assay with MDA-MB-435; 2.42 µM in the assay with CCRF-CEM leukemia. The GI50 in the assay with 786-0 renal is 7.81 µM; in the assay on NCI/ADR-RES ovarian, 4.82 µM; with PC-3 prostate, 3.66 µM; in the assay on DU-145 prostate, 8.8 µM. Also, the TGI is 31.2 µM in the assay on LOX IMVI melanoma; 44.2 µM with MCF7 breast; 35.3 µM in the assay on RXF 393 renal; > 100 µM in the assay with NCI-H460 lung; 4.33 µM in the assay on MDA-MB-435; 12.6 µM with CCRF-CEM leukemia. In addition, the TGI in the assay with 786-0 renal, with NCI/ADR-RES ovarian, in the assay on PC-3 prostate and with DU-145 prostate was > 100 µM each time.
Take `Cc1ccc(Nc2n[nH]c(=S)s2)cc1`: the TGI in the assay on LOX IMVI melanoma, in the assay with MCF7 breast, in the assay with RXF 393 renal, with NCI-H460 lung, in the assay on MDA-MB-435 and in the assay on CCRF-CEM leukemia was > 100 µM in each case. Further, the TGI in the assay on 786-0 renal, with NCI/ADR-RES ovarian, in the assay on PC-3 prostate and in the assay on DU-145 prostate was > 100 µM throughout.
Regarding `N#Cc1ccc(N2Cc3ccccc3OC3=C2C(=O)c2c(O)ccc(O)c2C3=O)cc1`, the GI50 in the assay on LOX IMVI melanoma is 0.166 µM; in the assay on MCF7 breast, 0.329 µM; in the assay with RXF 393 renal it was 0.157 µM; in the assay on NCI-H460 lung, 0.897 µM; with MDA-MB-435, 0.235 µM; in the assay on CCRF-CEM leukemia, 0.0556 µM. In addition, the GI50 in the assay with 786-0 renal is 0.145 µM; in the assay with NCI/ADR-RES ovarian, 0.611 µM; in the assay with PC-3 prostate, 0.357 µM; in the assay on DU-145 prostate, 0.307 µM. In addition, the TGI was determined as 0.44 µM in the assay with LOX IMVI melanoma; 2.66 µM with MCF7 breast; 0.313 µM with RXF 393 renal; 4.23 µM in the assay with NCI-H460 lung; 0.579 µM in the assay on MDA-MB-435; 0.391 µM in the assay with CCRF-CEM leukemia. Besides, the TGI in the assay with 786-0 renal amounted to 0.381 µM; in the assay with NCI/ADR-RES ovarian, 6.8 µM; in the assay with PC-3 prostate, 1.29 µM; in the assay on DU-145 prostate, 0.919 µM.
With `O=[N+]([O-])c1ccc2c(N3CCC(CCCC4CCN(c5ncnc6cc([N+](=O)[O-])ccc56)CC4)CC3)ncnc2c1`, the GI50 in the assay with LOX IMVI melanoma is 29.7 µM; with MCF7 breast it was 0.619 µM; in the assay on RXF 393 renal, 30.8 µM; in the assay on NCI-H460 lung, 23.9 µM; in the assay with MDA-MB-435 it was > 40.7 µM; in the assay on CCRF-CEM leukemia, 44.7 µM. For the same compound, the GI50 with 786-0 renal is > 46 µM; in the assay with NCI/ADR-RES ovarian, 0.658 µM; with PC-3 prostate, 8.96 µM; with DU-145 prostate it was > 96.2 µM. For the same compound, the TGI is > 100 µM in the assay with LOX IMVI melanoma; > 59.3 µM with MCF7 breast; > 100 µM in the assay on RXF 393 renal; > 100 µM in the assay on NCI-H460 lung; > 100 µM in the assay on MDA-MB-435; > 100 µM in the assay on CCRF-CEM leukemia. Further, the TGI was > 86.2 µM in the assay on 786-0 renal, > 100 µM in the assay on NCI/ADR-RES ovarian, > 100 µM in the assay with PC-3 prostate and > 100 µM with DU-145 prostate.
Consider `CN1CCN(c2ccc3nc(-c4c(N)c5c(F)cccc5[nH]c4=O)[nH]c3c2)CC1`, for which the GI50 is 0.478 µM and 0.41 µM and 0.769 µM in the assay on LOX IMVI melanoma; 0.875 µM and 0.71 µM and 1.21 µM in the assay with MCF7 breast; 0.216 µM and 0.212 µM and 0.282 µM in the assay on RXF 393 renal; 0.369 µM and 0.344 µM and 0.454 µM with NCI-H460 lung; 0.974 µM and 0.535 µM and 1.08 µM with MDA-MB-435; 0.834 µM and 0.684 µM and 1.01 µM in the assay with CCRF-CEM leukemia. Moreover, the GI50 is 1.2 µM and 0.695 µM and 0.946 µM in the assay on 786-0 renal; 1.77 µM and 2.64 µM and 2.47 µM in the assay on NCI/ADR-RES ovarian; 1.16 µM and 1.02 µM and 1.73 µM in the assay on PC-3 prostate; 0.991 µM and 0.547 µM and 1.06 µM with DU-145 prostate. The TGI with LOX IMVI melanoma is 1.86 µM and 1.48 µM and 2.14 µM; in the assay on MCF7 breast it was 2.78 µM and > 4.82 µM and 6.76 µM; in the assay with RXF 393 renal, 1.19 µM and 0.632 µM and 1.18 µM; with NCI-H460 lung, 1.72 µM and 1.79 µM and 2.2 µM; in the assay on MDA-MB-435, 2.34 µM and 1.85 µM and 2.61 µM; in the assay with CCRF-CEM leukemia it was 7.93 µM and > 5.89 µM and 9.41 µM. Also, the TGI was 3.93 µM and > 3.84 µM and 3.07 µM in the assay with 786-0 renal; 7.18 µM and > 10 µM and 13 µM with NCI/ADR-RES ovarian; 7.1 µM and > 7.42 µM and 8.59 µM with PC-3 prostate; 2.97 µM and > 6.53 µM and 9.59 µM in the assay on DU-145 prostate.
For `CCOC(=O)/C=C/c1cc2cc(-c3csc4ccccc34)ccc2[nH]1`, the GI50 in the assay with LOX IMVI melanoma is 5 µM; with MCF7 breast, 3.34 µM; in the assay on RXF 393 renal, 3.86 µM; in the assay with NCI-H460 lung it was 15.5 µM; in the assay on MDA-MB-435, 1.91 µM; with CCRF-CEM leukemia it was 3.04 µM. The GI50 was 11.3 µM with 786-0 renal, 10 µM in the assay on NCI/ADR-RES ovarian, 3.42 µM in the assay on PC-3 prostate and 4.83 µM in the assay with DU-145 prostate. Further, the TGI with LOX IMVI melanoma worked out at 18.9 µM; with MCF7 breast it was 15.3 µM; in the assay on NCI-H460 lung, 31.3 µM; in the assay with MDA-MB-435, 4.73 µM; in the assay on CCRF-CEM leukemia, 11.4 µM; in the assay with 786-0 renal, 26.9 µM. Besides, the TGI with NCI/ADR-RES ovarian turned out to be 55.3 µM; in the assay on PC-3 prostate, 13.8 µM; in the assay on DU-145 prostate it was 16.6 µM.
Consider `c1ccc(-c2cc(C3CO3)c3ccccc3n2)cc1` (centres undefined), for which the TGI is 34.1 µM with LOX IMVI melanoma; 47.8 µM in the assay on MCF7 breast; 28.3 µM in the assay on RXF 393 renal; 39.1 µM in the assay on NCI-H460 lung; 35.5 µM in the assay with MDA-MB-435; > 100 µM with CCRF-CEM leukemia. The TGI in the assay with 786-0 renal was determined as 29.3 µM; in the assay with NCI/ADR-RES ovarian it was 57.6 µM; in the assay with PC-3 prostate it was 41.2 µM; in the assay with DU-145 prostate, 34.7 µM.
Take `C/C(=N\N=C(\[Se])N1CCN(c2ccccn2)CC1)c1ccccn1`: the GI50 with LOX IMVI melanoma was 0.00443 µM; with MCF7 breast, 0.00278 µM; in the assay on MDA-MB-435 it was 0.0967 µM; in the assay with 786-0 renal, 0.198 µM; in the assay on PC-3 prostate it was 0.334 µM; in the assay with DU-145 prostate, 0.586 µM. The TGI in the assay on LOX IMVI melanoma turned out to be 17.6 µM; in the assay with MCF7 breast it was 14.3 µM; in the assay on RXF 393 renal, 1.83 µM; in the assay with NCI-H460 lung it was 16 µM; in the assay on MDA-MB-435, 20.3 µM; in the assay with 786-0 renal it was 19.8 µM. Besides, the TGI in the assay with NCI/ADR-RES ovarian was 18.6 µM; with PC-3 prostate, 14.2 µM; with DU-145 prostate, 20.1 µM.
